Values after ≈ are worked out from the molar mass of the structure shown. Counter-ions that a name gives are not always drawn.
Tests used:
B16-F10 murine melanoma = experiment: In vitro cytotoxicity assay, B16-F10 murine melanoma; format: cell-based; conditions: two values per compound, four-fold serial dilution; for In vitro cytotoxicity IC50, B-16-F10: B16-F10 murine melanoma; for IC50: Mus musculus, B16-F10, B16-F10 murine melanoma, read-out: In vitro cytotoxicity IC50, B-16-F10
Method: (§1) The in vitro cytotoxicity assay involved growing various mammalian tumor cells, including human tumor cells, on microtitre plates employing established tissue culture methods. The concentration of each compound required to inhibit cell growth by 50% (IC50) was then determined by a four-fold serial dilution technique. The validity of the method has been supported by a report published in the "Proceedings of the American Association for Cancer Research", 1984, 25:1891 (Abst. No. 328). Tumor cells of the following types were employed for each compound tested: B16-F10 murine melanoma; Moser human colon; SW900 human lung and three human colon tumor cell lines namely HCT-116, HCT-VM, and HCT-VP, the latter two being resistant to teniposide (VM) and etoposide (VP), respectively. IC50 values less than 500 μg/ml are a positive indicator of antitumor activity. Table II presents IC50 values of various compounds of the present invention against the aforementioned cell lines.

P388 murine leukemia = experiment: P388 Leukemia, antitumor activity against murine P388 leukemia; format: in vivo, murine (female CDF1 mice); conditions: i.p. on days 5 and 8; 10^6 P388 cells i.p.; maximum effect over doses; >=125 considered significant; etoposide values in parentheses are positive control in same experiment
Method: Female CDF1 mice were implanted intraperitoneally with a tumor inoculum of 10^6 ascites cells of P388 murine leukemia and treated with various doses of a test compound; four mice were used for each dose level and ten were used as saline-treated control. The compounds were administered by intraperitoneal injection on days 5 and 8 (day 1 being the day of tumor implantation). Antitumor activity was expressed as % T/C which is the ratio of the median survival time (MST) of drug-treated group to the MST of saline-treated control group. A compound showing a % T/C value of 125 or greater is generally considered to have significant antitumor activity in the P388 test. The experiment lasted 31 days at the end of which time the number of survivors was noted. Table I presents the results of the above-described evaluation; only the maximum % T/C and the dose showing the maximum effect are reported.

HCT/VP35 = experiment: In vitro cytotoxicity assay, HCT/VP35 etoposide-resistant human colon tumor; format: cell-based; conditions: two values per compound, four-fold serial dilution; for In vitro cytotoxicity IC50, HCT/VP35: HCT/VP35, resistant to etoposide; for IC50: Homo sapiens, HCT/VP35, HCT/VP35, resistant to etoposide
Method: as §1

HCT/VM34 = experiment: In vitro cytotoxicity assay, HCT/VM34 teniposide-resistant human colon tumor; format: cell-based; conditions: HCT/VM34, resistant to teniposide, two values per compound, four-fold serial dilution; for IC50: Homo sapiens
Method: as §1

Moser human colon = experiment: In vitro cytotoxicity assay, Moser human colon; format: cell-based; conditions: two values per compound, four-fold serial dilution; for IC50: Homo sapiens
Method: as §1

SW900 human lung = experiment: In vitro cytotoxicity assay, SW900 human lung; format: cell-based; conditions: two values per compound, four-fold serial dilution; for IC50: Homo sapiens, SW900, SW900 human lung; for In vitro cytotoxicity IC50, SW900: SW900 human lung
Method: as §1

HCT-116 = experiment: In vitro cytotoxicity assay, HCT-116 human colon tumor; format: cell-based; conditions: two values per compound, four-fold serial dilution; for In vitro cytotoxicity IC50, HCT-116: HCT-116 human colon; for IC50: Homo sapiens, HCT-116, HCT-116 human colon
Method: as §1

Structure (SMILES)	In vitro cytotoxicity IC50, B-16-F10 (B16-F10 murine melanoma)	IC50 (B16-F10 murine melanoma)	Max % T/C (ratio of median survival time of drug-treated group to saline-treated control group) (P388 murine leukemia)	In vitro cytotoxicity IC50, HCT/VP35 (HCT/VP35)	IC50 (HCT/VP35)	In vitro cytotoxicity IC50, HCT/VM34 (HCT/VM34)	IC50 (HCT/VM34)	IC50 (Moser human colon)	In vitro cytotoxicity IC50, MOSER (Moser human colon)	IC50 (SW900 human lung)	In vitro cytotoxicity IC50, HCT-116 (HCT-116)	IC50 (HCT-116)	In vitro cytotoxicity IC50, SW900 (SW900 human lung)
COc1cc([C@@H]2c3cc4c(cc3[C@@H](O[C@@H]3O[C@@H]5CO[C@@H](C)O[C@H]5[C@H](O)[C@H]3O)[C@H]3COC(=O)[C@H]23)OCO4)cc2ncoc12 [Example 27, Etoposide benzoxazole derivative]	4.3 µg/mL	5.3 µg/mL (≈ 9.08 µM)	165%	15.6 µg/mL	26 µg/mL (≈ 44.6 µM)	10.6 µg/mL	14 µg/mL (≈ 24 µM)	25 µg/mL (≈ 42.8 µM)	27 µg/mL	–	–	–	–
COc1cc([C@@H]2c3cc4c(cc3[C@@H](O[C@@H]3O[C@@H]5CO[C@@H](C)O[C@H]5[C@H](O)[C@H]3O)[C@H]3COC(=O)[C@H]23)OCO4)cc(NS(C)(=O)=O)c1O [Example 12, 3'-Desmethoxy-3'-methanesulfonamido etoposide]	54 µg/mL	61 µg/mL (≈ 93.6 µM)	150%	132 µg/mL	88 µg/mL (≈ 135 µM)	–	–	–	–	> 188 µg/mL	62 µg/mL	54 µg/mL (≈ 82.9 µM)	–
COc1cc([C@@H]2c3cc4c(cc3[C@@H](O[C@@H]3O[C@@H]5CO[C@@H](C)O[C@H]5[C@H](O)[C@H]3O)[C@H]3COC(=O)[C@H]23)OCO4)cc(N=Cc2ccco2)c1O [Example 18, 3'-Desmethoxy-3'-[(2-furyl)methylene]amino etoposide]	15.3 µg/mL	12.5 µg/mL (≈ 19.2 µM)	200%	–	–	–	–	40 µg/mL (≈ 61.4 µM)	37 µg/mL	42 µg/mL (≈ 64.5 µM)	18.4 µg/mL	29 µg/mL (≈ 44.5 µM)	40 µg/mL
COc1ccc(C=Nc2cc([C@@H]3c4cc5c(cc4[C@@H](O[C@@H]4O[C@@H]6CO[C@@H](C)O[C@H]6[C@H](O)[C@H]4O)[C@H]4COC(=O)[C@H]34)OCO5)cc(OC)c2O)cc1 [Example 20, 3'-Desmethoxy-3'-[[(4-methoxy)phenyl]methylene]amino etoposide]	19.8 µg/mL	13.3 µg/mL (≈ 19.2 µM)	175%	61 µg/mL	35 µg/mL (≈ 50.6 µM)	–	–	–	–	–	5.6 µg/mL	9.6 µg/mL (≈ 13.9 µM)	–
COc1cc([C@@H]2c3cc4c(cc3[C@@H](O[C@@H]3O[C@@H]5CO[C@@H](C)O[C@H]5[C@H](O)[C@H]3O)[C@H]3COC(=O)[C@H]23)OCO4)cc(NC(=O)NCCCl)c1O [Example 10, 3'-[(2-Chloroethylamino)carbonyl]amino-3'-desmethoxy etoposide]	87 µg/mL	57 µg/mL (≈ 83.9 µM)	110%	106 µg/mL	92 µg/mL (≈ 135 µM)	100 µg/mL	81 µg/mL (≈ 119 µM)	–	–	–	78 µg/mL	71 µg/mL (≈ 105 µM)	–
COC1=CC([C@@H]2c3cc4c(cc3[C@@H](O[C@@H]3O[C@@H]5CO[C@@H](C)O[C@H]5[C@H](O)[C@H]3O)[C@H]3COC(=O)[C@@H]32)OCO4)=CC(=NOCc2ccccc2)C1=O [Example 2, Etoposide-ortho-quinone-3'-O-benzyloxime]	–	–	242%	–	–	–	–	–	–	–	–	–	–
COc1cc([C@@H]2c3cc4c(cc3[C@@H](O[C@@H]3O[C@@H]5CO[C@@H](C)O[C@H]5[C@H](O)[C@H]3O)[C@H]3COC(=O)[C@H]23)OCO4)cc([N+](=O)[O-])c1O [Example 24, 3'-Desmethoxy-3'-nitro etoposide]	50 µg/mL	41 µg/mL (≈ 67.9 µM)	> 140%	–	–	82 µg/mL	56 µg/mL (≈ 92.8 µM)	92 µg/mL (≈ 152 µM)	84 µg/mL	66 µg/mL (≈ 109 µM)	53 µg/mL	43 µg/mL (≈ 71.2 µM)	90 µg/mL
COc1cc([C@@H]2c3cc4c(cc3[C@@H](O[C@@H]3O[C@@H]5CO[C@@H](C)O[C@H]5[C@H](O)[C@H]3O)[C@H]3COC(=O)[C@H]23)OCO4)cc(N=Cc2ccncc2)c1O [Example 19, 3'-Desmethoxy-3'-[(4-pyridyl)methylene]amino etoposide]	16.4 µg/mL	16.9 µg/mL (≈ 25.5 µM)	230%	–	–	19.3 µg/mL	21 µg/mL (≈ 31.7 µM)	38 µg/mL (≈ 57.3 µM)	32 µg/mL	42 µg/mL (≈ 63.4 µM)	12.7 µg/mL	13.9 µg/mL (≈ 21 µM)	28 µg/mL
COc1cc([C@@H]2c3cc4c(cc3[C@@H](O[C@@H]3O[C@@H]5CO[C@@H](C)O[C@H]5[C@H](O)[C@H]3O)[C@H]3COC(=O)[C@H]23)OCO4)cc(N=Cc2cc(OC)c(OC)c(OC)c2)c1O [Example 21, 3'-Desmethoxy-3'-[[(3,4,5-trimethoxy)phenyl]methylene]amino etoposide]	4.3 µg/mL	5.3 µg/mL (≈ 7.05 µM)	225%	15.6 µg/mL	26 µg/mL (≈ 34.6 µM)	10.6 µg/mL	14 µg/mL (≈ 18.6 µM)	25 µg/mL (≈ 33.3 µM)	27 µg/mL	–	–	–	–
COc1cc([C@@H]2c3cc4c(cc3[C@@H](O[C@@H]3O[C@@H]5CO[C@@H](C)O[C@H]5[C@H](O)[C@H]3O)[C@H]3COC(=O)[C@H]23)OCO4)cc(N)c1O [Example 3, 3'-Amino-3'-desmethoxy etoposide]	–	–	228%	–	–	–	–	–	–	–	–	–	–
COc1cc([C@@H]2c3cc4c(cc3[C@@H](O[C@@H]3O[C@@H]5CO[C@@H](C)O[C@H]5[C@H](O)[C@H]3O)[C@H]3COC(=O)[C@H]23)OCO4)cc(NC(C)=O)c1O [Example 7, 3'-Acetylamino-3'-desmethoxy etoposide]	63 µg/mL	54 µg/mL (≈ 87.7 µM)	135%	83 µg/mL	90 µg/mL (≈ 146 µM)	65 µg/mL	63 µg/mL (≈ 102 µM)	–	–	–	63 µg/mL	60 µg/mL (≈ 97.5 µM)	–
CC(=O)NC1=CC([C@@H]2c3cc4c(cc3[C@@H](O[C@@H]3O[C@@H]5CO[C@@H](C)O[C@H]5[C@H](O)[C@H]3O)[C@H]3COC(=O)[C@@H]32)OCO4)=CC(=O)C1=O [Example 28, 5'-Desmethoxy-5'-acetylamino etoposide 3',4'-orthoquinone]	81 µg/mL	72 µg/mL (≈ 120 µM)	125%	70 µg/mL	84 µg/mL (≈ 140 µM)	64 µg/mL	58 µg/mL (≈ 96.7 µM)	87 µg/mL (≈ 145 µM)	71 µg/mL	–	68 µg/mL	66 µg/mL (≈ 110 µM)	–
CON=C1C=C([C@@H]2c3cc4c(cc3[C@@H](O[C@@H]3O[C@@H]5CO[C@@H](C)O[C@H]5[C@H](O)[C@H]3O)[C@H]3COC(=O)[C@@H]32)OCO4)C=C(OC)C1=O [Example 1, Etoposide-ortho-quinone-3'-O-methyloxime]	–	–	200%	–	–	–	–	–	–	–	–	–	–
COc1cc([C@@H]2c3cc4c(cc3[C@@H](O[C@@H]3O[C@@H]5CO[C@@H](C)O[C@H]5[C@H](O)[C@H]3O)[C@H]3COC(=O)[C@H]23)OCO4)cc([N+]#N)c1[O-] [Example 25, 3'-Desmethoxy-3'-diazonium etoposide hydroxide inner salt]	25 µg/mL	29 µg/mL	240%	102 µg/mL	78 µg/mL	43 µg/mL	38 µg/mL	–	–	–	38 µg/mL	24 µg/mL	–
